Results taken from ChEMBL document CHEMBL4130363, “Synthesis and pharmacological evaluation of benzamide derivatives as potent and selective sigma-1 protein ligands” (Eur J Med Chem, 2017).

Assays:
Assay type in all cases: functional
[1] = target: 5-hydroxytryptamine receptor 2B (Homo sapiens) (UniProt P41595); assay: Agonist activity at recombinant human 5-HT2B at 10 uM by aequorin reporter based assay relative to agonist
[2] = target: 5-hydroxytryptamine receptor 7 (Homo sapiens) (UniProt P34969); assay: Agonist activity at recombinant human 5-HT7R assessed as induction of cAMP levels at 10 uM by HTRF assay relative to agonist
[3] = target: T1, Alpha-1B adrenergic receptor (Homo sapiens) (UniProt P35368); assay: Antagonist activity at recombinant human alpha-1b adrenergic receptor assessed as inhibition of agonist-induced […] reporter based assay
T1 sequence (whole entry): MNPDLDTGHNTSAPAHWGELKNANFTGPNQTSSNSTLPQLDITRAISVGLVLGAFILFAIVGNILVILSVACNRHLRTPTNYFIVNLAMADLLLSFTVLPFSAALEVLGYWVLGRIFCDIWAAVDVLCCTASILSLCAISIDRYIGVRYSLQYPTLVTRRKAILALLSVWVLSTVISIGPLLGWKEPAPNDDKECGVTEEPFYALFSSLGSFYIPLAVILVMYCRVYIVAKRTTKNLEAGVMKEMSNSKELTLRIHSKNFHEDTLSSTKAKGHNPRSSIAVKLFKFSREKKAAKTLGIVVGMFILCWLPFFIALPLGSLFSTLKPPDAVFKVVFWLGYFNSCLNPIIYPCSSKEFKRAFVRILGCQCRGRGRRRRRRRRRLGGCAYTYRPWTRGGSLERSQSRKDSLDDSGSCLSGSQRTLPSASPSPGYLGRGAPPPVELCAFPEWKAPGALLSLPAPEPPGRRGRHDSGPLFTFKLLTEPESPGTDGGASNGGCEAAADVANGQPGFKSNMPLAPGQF

[4] = target: T2, Alpha-2A adrenergic receptor (Homo sapiens) (UniProt P08913); assay: Antagonist activity at recombinant human alpha-2a adrenergic receptor assessed as inhibition of agonist-induced effect at 10 uM by GTPgamma[35S] binding-based assay
T2 sequence (whole entry): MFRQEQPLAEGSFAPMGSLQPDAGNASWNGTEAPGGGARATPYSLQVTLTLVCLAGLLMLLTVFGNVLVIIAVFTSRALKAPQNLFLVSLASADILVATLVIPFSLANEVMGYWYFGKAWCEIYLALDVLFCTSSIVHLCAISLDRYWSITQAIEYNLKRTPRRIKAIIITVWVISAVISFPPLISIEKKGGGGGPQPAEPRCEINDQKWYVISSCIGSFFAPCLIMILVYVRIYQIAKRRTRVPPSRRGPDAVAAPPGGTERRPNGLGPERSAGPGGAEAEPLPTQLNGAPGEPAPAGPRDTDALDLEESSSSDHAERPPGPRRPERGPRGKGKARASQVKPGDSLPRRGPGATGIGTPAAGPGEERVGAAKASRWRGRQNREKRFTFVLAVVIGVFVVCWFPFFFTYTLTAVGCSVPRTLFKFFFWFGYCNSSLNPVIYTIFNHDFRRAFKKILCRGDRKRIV

[5] = target: Histamine H2 receptor (Homo sapiens) (UniProt P25021); assay: Antagonist activity at recombinant human histamine H2 receptor assessed as inhibition of agonist-induced cAMP levels at 10 uM by HTRF assay
[6] = target: T3, Muscarinic acetylcholine receptor M1 (Homo sapiens) (UniProt P11229); assay: Agonist activity at recombinant human muscarinic M1 receptor at 10 uM by aequorin reporter based assay relative to agonist
T3 sequence (whole entry): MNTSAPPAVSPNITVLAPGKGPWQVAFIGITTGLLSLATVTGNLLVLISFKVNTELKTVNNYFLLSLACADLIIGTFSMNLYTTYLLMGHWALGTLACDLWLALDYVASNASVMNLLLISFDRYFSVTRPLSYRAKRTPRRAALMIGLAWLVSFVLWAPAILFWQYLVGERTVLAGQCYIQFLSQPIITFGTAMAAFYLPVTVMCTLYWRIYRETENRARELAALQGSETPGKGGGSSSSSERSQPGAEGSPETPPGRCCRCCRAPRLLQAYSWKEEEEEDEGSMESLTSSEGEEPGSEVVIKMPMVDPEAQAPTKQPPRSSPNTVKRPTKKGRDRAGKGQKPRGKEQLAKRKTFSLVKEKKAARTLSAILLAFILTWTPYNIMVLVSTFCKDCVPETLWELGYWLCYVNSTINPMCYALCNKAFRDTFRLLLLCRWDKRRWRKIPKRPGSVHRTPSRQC

[7] = target: T4, Muscarinic acetylcholine receptor M4 (Homo sapiens) (UniProt P08173); assay: Agonist activity at recombinant human muscarinic M4 receptor at 10 uM by GTPgamma[35S] binding-based assay relative to agonist
T4 sequence (whole entry): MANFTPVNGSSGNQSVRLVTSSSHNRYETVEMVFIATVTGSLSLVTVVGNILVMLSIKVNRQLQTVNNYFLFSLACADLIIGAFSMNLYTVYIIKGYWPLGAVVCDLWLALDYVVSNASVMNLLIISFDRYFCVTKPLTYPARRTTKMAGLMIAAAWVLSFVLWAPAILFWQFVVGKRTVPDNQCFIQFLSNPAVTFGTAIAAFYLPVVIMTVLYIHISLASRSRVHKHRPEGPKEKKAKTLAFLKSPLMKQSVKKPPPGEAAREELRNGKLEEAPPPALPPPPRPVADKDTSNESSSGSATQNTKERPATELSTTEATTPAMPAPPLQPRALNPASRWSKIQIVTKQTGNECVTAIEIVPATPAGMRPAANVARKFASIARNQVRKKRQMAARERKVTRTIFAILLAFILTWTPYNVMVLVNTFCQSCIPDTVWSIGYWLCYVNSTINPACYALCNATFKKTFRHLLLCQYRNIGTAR

[8] = target: Substance-P receptor (Homo sapiens) (UniProt P25103); assay: Antagonist activity at recombinant human NK1R assessed as inhibition of agonist-induced effect at 10 uM by aequorin reporter based assay
[9] = target: Delta-type opioid receptor (Homo sapiens) (UniProt P41143); assay: Agonist activity at recombinant human delta-type opioid receptor at 10 uM by GTPgamma[35S] binding-based assay relative to agonist
Chain of Delta-type opioid receptor (Homo sapiens) (P41143 whole entry): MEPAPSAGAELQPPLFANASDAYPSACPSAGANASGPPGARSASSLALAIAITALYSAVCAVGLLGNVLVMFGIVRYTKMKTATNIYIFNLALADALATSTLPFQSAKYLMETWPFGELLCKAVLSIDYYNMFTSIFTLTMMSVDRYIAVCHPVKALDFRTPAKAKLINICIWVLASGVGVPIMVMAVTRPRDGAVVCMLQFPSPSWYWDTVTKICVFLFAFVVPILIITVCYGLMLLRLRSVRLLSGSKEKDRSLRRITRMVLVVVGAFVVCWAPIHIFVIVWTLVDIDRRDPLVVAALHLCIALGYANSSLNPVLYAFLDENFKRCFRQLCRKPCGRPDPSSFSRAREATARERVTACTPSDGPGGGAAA

Chain of Substance-P receptor (Homo sapiens) (P25103 whole entry): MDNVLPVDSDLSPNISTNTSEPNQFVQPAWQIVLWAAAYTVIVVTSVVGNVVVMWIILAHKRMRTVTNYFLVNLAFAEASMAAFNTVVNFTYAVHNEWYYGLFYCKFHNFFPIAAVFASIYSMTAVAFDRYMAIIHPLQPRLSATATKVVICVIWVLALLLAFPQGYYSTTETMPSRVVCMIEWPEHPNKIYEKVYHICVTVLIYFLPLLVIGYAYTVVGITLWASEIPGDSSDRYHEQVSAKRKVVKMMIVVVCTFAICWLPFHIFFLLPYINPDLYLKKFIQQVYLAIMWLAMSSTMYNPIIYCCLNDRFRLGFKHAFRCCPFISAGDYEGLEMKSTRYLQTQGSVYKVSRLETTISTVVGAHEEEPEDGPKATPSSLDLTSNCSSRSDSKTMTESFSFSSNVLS
Chain of 5-hydroxytryptamine receptor 7 (Homo sapiens) (P34969 whole entry): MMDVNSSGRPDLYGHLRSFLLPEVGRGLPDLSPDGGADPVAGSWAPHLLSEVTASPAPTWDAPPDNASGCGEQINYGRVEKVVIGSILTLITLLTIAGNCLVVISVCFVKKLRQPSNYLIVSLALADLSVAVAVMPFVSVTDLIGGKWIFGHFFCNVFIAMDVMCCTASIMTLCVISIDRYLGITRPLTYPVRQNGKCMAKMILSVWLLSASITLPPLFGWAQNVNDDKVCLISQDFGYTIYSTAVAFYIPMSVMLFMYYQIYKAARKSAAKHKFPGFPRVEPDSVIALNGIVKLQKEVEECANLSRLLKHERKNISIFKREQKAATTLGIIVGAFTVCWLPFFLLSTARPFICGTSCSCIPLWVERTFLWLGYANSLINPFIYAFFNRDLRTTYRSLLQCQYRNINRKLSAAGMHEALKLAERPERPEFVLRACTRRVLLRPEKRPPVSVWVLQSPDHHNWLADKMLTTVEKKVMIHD
Chain of 5-hydroxytryptamine receptor 2B (Homo sapiens) (P41595 whole entry): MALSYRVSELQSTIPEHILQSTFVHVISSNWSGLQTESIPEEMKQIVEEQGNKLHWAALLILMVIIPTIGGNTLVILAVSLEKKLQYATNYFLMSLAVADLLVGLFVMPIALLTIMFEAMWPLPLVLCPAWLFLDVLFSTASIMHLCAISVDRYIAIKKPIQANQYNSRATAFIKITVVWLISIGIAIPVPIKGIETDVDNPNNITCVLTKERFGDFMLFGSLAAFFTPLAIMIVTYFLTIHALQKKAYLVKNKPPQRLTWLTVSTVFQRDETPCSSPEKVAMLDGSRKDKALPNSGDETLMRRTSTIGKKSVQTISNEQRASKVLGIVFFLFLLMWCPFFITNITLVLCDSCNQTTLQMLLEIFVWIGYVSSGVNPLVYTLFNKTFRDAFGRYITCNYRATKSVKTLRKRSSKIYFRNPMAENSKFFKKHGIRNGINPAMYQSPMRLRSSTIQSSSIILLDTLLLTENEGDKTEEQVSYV
Chain of Histamine H2 receptor (Homo sapiens) (P25021 whole entry): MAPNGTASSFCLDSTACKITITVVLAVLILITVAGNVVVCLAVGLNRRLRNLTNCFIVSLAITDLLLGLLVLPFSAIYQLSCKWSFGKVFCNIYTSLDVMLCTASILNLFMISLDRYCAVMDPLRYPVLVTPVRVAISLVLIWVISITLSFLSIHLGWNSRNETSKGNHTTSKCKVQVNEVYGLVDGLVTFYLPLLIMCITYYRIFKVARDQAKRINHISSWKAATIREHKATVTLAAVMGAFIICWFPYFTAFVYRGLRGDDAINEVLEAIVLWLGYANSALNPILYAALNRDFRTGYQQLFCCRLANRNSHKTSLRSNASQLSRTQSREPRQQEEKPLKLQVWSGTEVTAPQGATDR

| Activity [1] | Activity [2] | inhibition [3] | inhibition [4] | inhibition [5] | Activity [6] | Activity [7] | inhibition [8] | Activity [9] | SMILES |
| --- | --- | --- | --- | --- | --- | --- | --- | --- | --- |
| -1% | 26% | 84% | 32% | 21% | 0% | 0% | 18% | 0% | CN(CCNC(=O)c1ccc([N+](=O)[O-])cc1)Cc1ccccc1 |
| -2% | 33% | 70% | 49% | 6% | -1% | -4% | 33% | 3% | CN(CCCNC(=O)c1ccc(C(F)(F)F)cc1)Cc1ccccc1 |
| 1% | 19% | 73% | 50% | 7% | 0% | -8% | 3% | 0% | CN(CCCNC(=O)c1ccc(Cl)cc1)Cc1ccccc1 |
| -3% | 25% | 72% | 37% | 8% | 0% | -10% | 34% | 1% | CCCc1ccc(C(=O)NCCCN(C)Cc2ccccc2)cc1 |
| -4% | 2% | 89% | 19% | 25% | 0% | -1% | 14% | -2% | CN(CCNC(=O)c1ccc(C#N)cc1)Cc1ccccc1 |
| -2% | -5% | 56% | 20% | 16% | 0% | -2% | 10% | -4% | COc1cccc(C(=O)NCCCN(C)Cc2ccccc2)c1 |
| 38% | 130% | 98% | 105% | 4% | 0% | -8% | 41% | 0% | CN(CCCNC(=O)c1ccc(Cl)cc1)CCc1ccccc1 |
| -2% | 33% | 63% | 25% | 2% | 0% | -5% | 21% | -1% | CN(CCCNC(=O)c1ccc([N+](=O)[O-])cc1)Cc1ccccc1 |
| 2% | -1% | 39% | 23% | 15% | 0% | -1% | 4% | -6% | COc1ccc(C(=O)NCCCN(C)Cc2ccccc2)cc1 |
| -2% | 21% | 97% | 57% | 9% | 0% | -12% | 58% | -1% | CN(CCCNC(=O)c1cccc(Br)c1)Cc1ccccc1 |
| 0% | 46% | 96% | 45% | 13% | 0% | -4% | 22% | 1% | CN(CCNC(=O)c1ccc(Cl)cc1)Cc1ccccc1 |
| 2% | 9% | 81% | 42% | 6% | 0% | -10% | 4% | 1% | CN(CCCNC(=O)c1ccc(Br)cc1)Cc1ccccc1 |
